How the values were obtained:
[1] = In vitro anti-plasmodial activity against Plasmodium falciparum dihydrofolate reductase A16V/S108T (T9/94RC17) mutant
[2] = In vitro anti-plasmodial activity against Plasmodium falciparum dihydrofolate reductase C59R/S108N (K1CB1) mutant
[3] = In vitro anti-plasmodial activity against Plasmodium falciparum dihydrofolate reductase […]/C59R/S108N/I164L (V1/S) mutant
[4] = In vitro anti-plasmodial activity against Plasmodium falciparum dihydrofolate reductase wild type (TM4/8.2)
[5] = In vitro anti-plasmodial activity against Plasmodium falciparum dihydrofolate reductase C59R+S108N/I164L (Csl-2) mutant
[6] = In vitro anti-plasmodial activity against Plasmodium falciparum dihydrofolate reductase N51I/C59R/S108N (W2)
[7] = target: Bifunctional dihydrofolate reductase-thymidylate synthase (Plasmodium falciparum (isolate K1 / Thailand), UniProt P13922); test: Binding affinity towards wild-type dihydrofolate reductase of Plasmodium falciparum.
Sequence of Bifunctional dihydrofolate reductase-thymidylate synthase (P13922 whole entry): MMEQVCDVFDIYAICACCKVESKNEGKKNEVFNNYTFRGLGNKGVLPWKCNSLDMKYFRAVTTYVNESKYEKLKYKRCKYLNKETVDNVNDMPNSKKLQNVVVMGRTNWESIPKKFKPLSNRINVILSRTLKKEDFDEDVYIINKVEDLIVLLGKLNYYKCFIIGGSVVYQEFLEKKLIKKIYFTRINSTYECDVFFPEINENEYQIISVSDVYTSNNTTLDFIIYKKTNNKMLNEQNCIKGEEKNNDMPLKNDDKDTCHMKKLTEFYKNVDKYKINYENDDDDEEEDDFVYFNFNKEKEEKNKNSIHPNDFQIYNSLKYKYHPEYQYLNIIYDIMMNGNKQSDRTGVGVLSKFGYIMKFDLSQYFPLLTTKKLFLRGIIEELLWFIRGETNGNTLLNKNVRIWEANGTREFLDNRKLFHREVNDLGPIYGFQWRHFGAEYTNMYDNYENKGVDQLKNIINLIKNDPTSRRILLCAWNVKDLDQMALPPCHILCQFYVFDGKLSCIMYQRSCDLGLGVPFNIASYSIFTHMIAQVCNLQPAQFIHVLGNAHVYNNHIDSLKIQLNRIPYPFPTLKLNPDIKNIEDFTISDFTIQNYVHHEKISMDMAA

Row | Structure (SMILES) | IC50 [1] [nM] | IC50 [2] [nM] | IC50 [3] [nM] | IC50 [4] [nM] | IC50 [5] [nM] | IC50 [6] [nM] | Ki [7] [nM]
1 | CCCOc1ccc(C2N=C(N)N=C(N)N2c2cccc(Cl)c2)cc1 (stereo unspecified) [1-(3-chlorophenyl)-6-(4-propoxyphenyl)-1,6-dihydro-1,3,5-triazine-2,4-diamine] | 4 | 1000 | 2900 | 250 | 2900 | 380 | –
2 | Nc1nc(N)c(-c2cccc(Cl)c2)c(CCOCCCOc2ccccc2)n1 [5-(3-chlorophenyl)-6-[2-(3-phenoxypropoxy)ethyl]pyrimidine-2,4-diamine] | – | – | 4600 | 350 | 2900 | 4500 | –
3 | Nc1nc(N)c(-c2ccccc2)c(CCCOC(=O)c2ccccc2)n1 [Benzoic acid 3-(2,6-diamino-5-phenyl-pyrimidin-4-yl)-propyl ester] | – | – | – | – | – | – | 3.4
4 | CC(C)C1(C)N=C(N)N=C(N)N1c1cccc(Cl)c1 (stereo unspecified) [1-(3-Chloro-phenyl)-6-isopropyl-6-methyl-1,6-dihydro-[1,3,5]triazine-2,4-diamine] | – | – | – | – | – | – | 25.5
5 | CC1(C)N=C(N)N=C(N)N1c1ccc(Cl)cc1 [Chlorazin] | 3700 | – | > 100000 | 40 | 37900 | 5800 | –
6 | COc1ccc(CCCc2nc(N)nc(N)c2-c2cccc(Cl)c2)cc1 [5-(3-Chloro-phenyl)-6-[3-(4-methoxy-phenyl)-propyl]-pyrimidine-2,4-diamine] | – | – | 4700 | 410 | 2700 | 4000 | –
7 | CC(=O)OCCCc1nc(N)nc(N)c1-c1cccc(Cl)c1 [Acetic acid 3-[2,6-diamino-5-(3-chloro-phenyl)-pyrimidin-4-yl]-propyl ester] | – | – | 5300 | 1600 | 1800 | 2100 | –
8 | NC1=NC(c2ccc(Oc3ccccc3)cc2)N(c2ccc(Cl)cc2)C(N)=N1 (stereo unspecified) [1-(4-chlorophenyl)-6-(4-phenoxyphenyl)-1,6-dihydro-1,3,5-triazine-2,4-diamine] | 40 | 3100 | – | 120 | 4800 | 3200 | 0.4
9 | NC1=NC(c2cccc(Oc3cc(Cl)cc(Cl)c3)c2)N(c2cccc(Cl)c2)C(N)=N1 (stereo unspecified) [1-(3-Chloro-phenyl)-6-[3-(3,5-dichloro-phenoxy)-phenyl]-1,6-dihydro-[1,3,5]triazine-2,4-diamine] | 50 | 3100 | 3900 | 5500 | 3900 | 3400 | 1.8
10 | CC(=O)OCCCc1nc(N)nc(N)c1-c1ccccc1 [Acetic acid 3-(2,6-diamino-5-phenyl-pyrimidin-4-yl)-propyl ester] | – | – | – | – | – | – | 10.6
11 | CCCCCCCC1N=C(N)N=C(N)N1c1cccc(Cl)c1 (stereo unspecified) [1-(3-Chloro-phenyl)-6-heptyl-1,6-dihydro-[1,3,5]triazine-2,4-diamine] | 4 | 260 | 2500 | 40 | 140 | 330 | 2.7
12 | CCCCCCC1(C)N=C(N)N=C(N)N1c1ccc(Cl)cc1 (stereo unspecified) [1-(4-chlorophenyl)-6-hexyl-6-methyl-1,6-dihydro-1,3,5-triazine-2,4-diamine] | 1900 | 2400 | 6400 | 20 | 4100 | 3300 | 0.6
13 | NC1=NC(c2cccc(Oc3ccc(Cl)cc3)c2)N(c2ccc(Cl)cc2)C(N)=N1 (stereo unspecified) [6-(3-(4-chlorophenoxy)phenyl)-1-(4-chlorophenyl)-1,6-dihydro-1,3,5-triazine-2,4-diamine] | 420 | 3300 | – | 2800 | – | – | 1.4
14 | NC1=NC(c2ccc(Oc3ccccc3)cc2)N(c2cccc(Cl)c2)C(N)=N1 (stereo unspecified) [1-(3-chlorophenyl)-6-(4-phenoxyphenyl)-1,6-dihydro-1,3,5-triazine-2,4-diamine] | 4 | 3100 | 3300 | 650 | 3300 | 740 | 0.7
15 | Nc1nc(N)c(-c2cccc(Cl)c2)c(CCCOC(=O)c2ccccc2)n1 [3-(2,6-diamino-5-(3-chlorophenyl)pyrimidin-4-yl)propyl benzoate] | – | – | 7500 | 2100 | 1900 | 2000 | 1.5
16 | CCCC1(C)N=C(N)N=C(N)N1c1ccc(Cl)cc1 (stereo unspecified) [1-(4-Chloro-phenyl)-6-methyl-6-propyl-1,6-dihydro-[1,3,5]triazine-2,4-diamine] | – | – | – | – | – | – | 3.5
17 | Nc1nc(N)c(-c2cccc(Cl)c2)c(CCCc2ccccc2)n1 | – | – | 5700 | 670 | 3600 | 4300 | –

Row | Structure (SMILES) | IC50 [1] [nM] | IC50 [2] [nM] | IC50 [3] [nM] | IC50 [4] [nM] | IC50 [5] [nM] | IC50 [6] [nM] | Ki [7] [nM]
18 | Nc1nc(N)c(-c2ccccc2)c(CCCc2ccccc2)n1 | – | – | 8600 | 210 | 2700 | 2700 | –
19 | CCCC1(C)N=C(N)N=C(N)N1c1cccc(Cl)c1 (stereo unspecified) [1-(3-chlorophenyl)-6-methyl-6-propyl-1,6-dihydro-1,3,5-triazine-2,4-diamine] | – | 180 | 1100 | 180 | 290 | 280 | 4.6
20 | Nc1nc(N)c(-c2cccc(Cl)c2)c(CCCOC(=O)OCc2ccccc2)n1 [benzyl 3-(2,6-diamino-5-(3-chlorophenyl)pyrimidin-4-yl)propyl carbonate] | – | – | 5900 | 1900 | 1900 | 4100 | 1.2
21 | CCCCCCC1(C)N=C(N)N=C(N)N1c1cccc(Cl)c1 (stereo unspecified) [1-(3-Chloro-phenyl)-6-hexyl-6-methyl-1,6-dihydro-[1,3,5]triazine-2,4-diamine] | – | 480 | 3200 | 60 | 490 | 510 | 2.4
22 | NC1=NC(c2cccc(Oc3ccccc3)c2)N(c2cccc(Cl)c2)C(N)=N1 (stereo unspecified) [1-(3-chlorophenyl)-6-(3-phenoxyphenyl)-1,6-dihydro-1,3,5-triazine-2,4-diamine] | 60 | 2700 | 3600 | 2200 | 3400 | 3500 | 1.1
23 | CCCCCCc1nc(N)nc(N)c1-c1ccccc1 [6-hexyl-5-phenylpyrimidine-2,4-diamine] | – | – | 6400 | 60 | 3000 | 2300 | –
24 | NC1=NC(c2ccccc2)N(c2cccc(Cl)c2)C(N)=N1 (stereo unspecified) [1-(3-chlorophenyl)-6-phenyl-1,6-dihydro-1,3,5-triazine-2,4-diamine] | 20 | 310 | 800 | 560 | 250 | 200 | –
25 | NC1=NC(c2cccc(OCCCOc3cc(Cl)c(Cl)cc3Cl)c2)N(c2cccc(Cl)c2)C(N)=N1 (stereo unspecified) [1-(3-chlorophenyl)-6-(3-(3-(2,4,5-trichlorophenoxy)propoxy)phenyl)-1,6-dihydro-1,3,5-triazine-2,4-diamine] | 370 | 7400 | 8600 | 3000 | 5200 | 3200 | 4
26 | NC1=NC(c2cccc(Oc3ccccc3)c2)N(c2ccc(Cl)cc2)C(N)=N1 (stereo unspecified) [1-(4-Chloro-phenyl)-6-(3-phenoxy-phenyl)-1,6-dihydro-[1,3,5]triazine-2,4-diamine] | – | – | – | – | – | – | 0.5
27 | CCc1nc(N)nc(N)c1-c1cccc(Cl)c1 [5-(3-chlorophenyl)-6-ethylpyrimidine-2,4-diamine] | – | – | 9100 | 420 | 2500 | 3900 | –
28 | NC1=NC(c2cccc(OCc3ccccc3)c2)N(c2ccc(Cl)cc2)C(N)=N1 (stereo unspecified) [6-(3-Benzyloxy-phenyl)-1-(4-chloro-phenyl)-1,6-dihydro-[1,3,5]triazine-2,4-diamine] | – | – | – | – | – | – | 0.7
29 | Nc1nc(N)c(-c2cccc(Cl)c2)c(CCCO)n1 [3-[2,6-Diamino-5-(3-chloro-phenyl)-pyrimidin-4-yl]-propan-1-ol] | – | – | 6200 | 1100 | 1900 | 4500 | 9.2
30 | NC1=NC(c2cccc(Oc3cccc(C(F)(F)F)c3)c2)N(c2cccc(Cl)c2)C(N)=N1 (stereo unspecified) [1-(3-chlorophenyl)-6-(3-(3-(trifluoromethyl)phenoxy)phenyl)-1,6-dihydro-1,3,5-triazine-2,4-diamine] | 180 | 2800 | 3200 | 3200 | 3400 | 2800 | 2.7
31 | NC1=NC(c2cccc(OCc3ccccc3)c2)N(c2cccc(Cl)c2)C(N)=N1 (stereo unspecified) [6-(3-(benzyloxy)phenyl)-1-(3-chlorophenyl)-1,6-dihydro-1,3,5-triazine-2,4-diamine] | 190 | 4900 | – | 4000 | 7500 | 3300 | 2.3
32 | CC(C)C1(C)N=C(N)N=C(N)N1c1ccc(Cl)cc1 (stereo unspecified) [1-(4-Chloro-phenyl)-6-isopropyl-6-methyl-1,6-dihydro-[1,3,5]triazine-2,4-diamine] | – | – | – | – | – | – | 36.5
33 | NC1=NC(c2cccc(Oc3ccc(Cl)cc3)c2)N(c2cccc(Cl)c2)C(N)=N1 (stereo unspecified) [6-(3-(4-chlorophenoxy)phenyl)-1-(3-chlorophenyl)-1,6-dihydro-1,3,5-triazine-2,4-diamine] | 390 | 2600 | 3200 | 3900 | 3100 | 2000 | 1.3

— BindingDB's records for doi:10.1021/jm030165t (National Center For Genetic Engineering and Biotechnology …, 2004)
